Literature values, collected in US6472398B1, “Spiropiperidine derivatives as melanocortin receptor agonists” (Merck & Co., Inc., priority 2000, dated 2002).

How the values were obtained:
[1] = test system: rodents; details: ICV; NPY, ob/ob, agouti, fasted feeding models
[2] = test system: patients with erectile dysfunction; details: for duration of effect / onset of action: after an oral dose; for share of patients with adequate response: oral, men with erectile dysfunction
[3] = test system: males with psychogenic erectile dysfunction

Compound | effect on food intake [1] | duration of effect [2] | onset of action [2] | share of patients with adequate response [2] | duration of action ([3]; in vivo) | time to onset of erection ([3]; in vivo) | absorption into the systemic circulation ([3]; in vivo, po) | response rate ([3]; injected intramuscularly or subcutaneously)
SHU-9119 | reverses this effect and can induce hyperphagia |  |  |  |  |  |  | 
Cc1ccc(N(CC2=NCCN2)c2cccc(O)c2)cc1 [phentolamine] |  | 2 h | 5 to 30 min | 35-40% |  |  |  | 
CCCc1nn(C)c2c(=O)[nH]c(-c3cc(S(=O)(=O)N4CCN(C)CC4)ccc3OCC)nc12 [sildenafil] |  | about 4 hours | 30 to 60 min | about 70% |  |  |  | 
Ac-Nle-c[Asp-His-DPhe-Arg-Trp-Lys]-NH2 [MT-II] | reduces food intake |  |  |  | approximately 2.5 hours | 10 to 20 min | not absorbed into the systemic circulation | 75%
